The values below come from US11208386B2, “Inhibitors of protein arginine deiminases (PADs) and methods of preparation and use thereof” (University of Massachusetts, priority 2016, dated 2021).

Broadly, the kinact/KI is the maximal inactivation rate divided by the concentration that gives half of it.

Common to all, as to type: biochemical
One assay addresses T1, PAD1 (Homo sapiens, UniProt Q9ULC6).
T1 construct: made in house
T1 sequence (Q9ULC6 1-663): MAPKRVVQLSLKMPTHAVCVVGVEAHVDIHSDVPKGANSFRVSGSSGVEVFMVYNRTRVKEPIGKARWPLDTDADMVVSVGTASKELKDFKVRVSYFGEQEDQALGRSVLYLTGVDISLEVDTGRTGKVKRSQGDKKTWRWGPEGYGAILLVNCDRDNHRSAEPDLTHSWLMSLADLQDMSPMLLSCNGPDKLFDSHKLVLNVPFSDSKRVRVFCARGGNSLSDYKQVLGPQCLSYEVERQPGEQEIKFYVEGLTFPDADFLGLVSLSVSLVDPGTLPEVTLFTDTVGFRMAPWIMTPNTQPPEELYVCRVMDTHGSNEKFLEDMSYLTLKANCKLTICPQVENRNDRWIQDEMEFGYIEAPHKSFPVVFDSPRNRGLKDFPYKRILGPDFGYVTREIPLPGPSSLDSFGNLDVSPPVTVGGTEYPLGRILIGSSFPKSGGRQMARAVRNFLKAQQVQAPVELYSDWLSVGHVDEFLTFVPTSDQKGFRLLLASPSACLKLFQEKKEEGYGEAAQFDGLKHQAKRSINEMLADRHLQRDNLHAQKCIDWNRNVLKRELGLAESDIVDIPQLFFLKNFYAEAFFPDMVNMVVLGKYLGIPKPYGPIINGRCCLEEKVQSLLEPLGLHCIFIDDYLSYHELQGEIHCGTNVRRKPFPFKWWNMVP
Nature of the assay: Inactivation kinetics, PAD1. The following applies: for kinact/KI: a: single kobs determined, b: from a linear fit; for Fold PAD1 Selectivity: kinact/KI relative to least inhibited isozyme (1.0). As to the method: (§1) Inactivation kinetic parameters were determined by incubating PAD1, 2, or 4 (2.0 μM) or PAD3 (5.0 μM) in a pre-warmed (10 min; 37° C.) inactivation mixture (50 mM HEPES, 10 mM CaCl2, and 2 mM DTT, pH 7.6, with a final volume of 60 μL) containing various concentrations of inhibitor. Aliquots were removed at various time points and added to a pre-warmed (10 min, 37° C.) reaction mixture (50 mM HEPES, 50 mM NaCl, 10 mM CaC2, 2 mM DTT, and 10 mM BAEE or 10 mM BAA in the case of PAD3; pH 7.6). After 15 min, reactions were quenched in liquid nitrogen and citrulline production quantified using the COLDER assay. […] In Vitro Labeling of PADs with “Clickable” Probes BB-F-Yne (5u), BB-Cl-Yne (5v) and BIFYne (5w)

For the next assay, the target named is T2, PAD2 (Homo sapiens, UniProt Q9Y2J8).
T2 construct: made in house
Nature of the assay: Inactivation kinetics, PAD2. Conditions: for kinact/KI: a: single kobs determined, b: from a linear fit, other footnotes: from kinact and KI; for Fold PAD2 Selectivity: kinact/KI relative to least inhibited isozyme (1.0). As to the method:
as §1

A further assay deals with T3, PAD3 (Homo sapiens, UniProt Q9ULW8).
T3 construct: made in house
T3 sequence (Q9ULW8 1-664): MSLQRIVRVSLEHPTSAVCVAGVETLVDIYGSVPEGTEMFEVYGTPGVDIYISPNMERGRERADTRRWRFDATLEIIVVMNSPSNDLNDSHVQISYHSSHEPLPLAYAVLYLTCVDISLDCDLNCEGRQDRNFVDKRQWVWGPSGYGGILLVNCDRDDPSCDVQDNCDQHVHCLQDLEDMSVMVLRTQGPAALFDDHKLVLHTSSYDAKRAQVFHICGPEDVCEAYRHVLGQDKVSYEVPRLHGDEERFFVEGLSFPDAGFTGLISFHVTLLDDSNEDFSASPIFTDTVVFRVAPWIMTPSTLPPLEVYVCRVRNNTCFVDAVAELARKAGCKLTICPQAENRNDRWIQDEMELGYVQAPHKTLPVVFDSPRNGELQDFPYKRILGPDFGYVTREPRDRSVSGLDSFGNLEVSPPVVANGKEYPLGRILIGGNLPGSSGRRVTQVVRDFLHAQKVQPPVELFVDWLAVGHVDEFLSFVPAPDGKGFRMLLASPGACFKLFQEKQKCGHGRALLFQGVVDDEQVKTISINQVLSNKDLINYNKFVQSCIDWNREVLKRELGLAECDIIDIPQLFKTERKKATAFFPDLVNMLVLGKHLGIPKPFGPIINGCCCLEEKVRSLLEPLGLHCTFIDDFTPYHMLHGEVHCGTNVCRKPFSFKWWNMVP
The assay is described as follows: Inactivation kinetics, PAD3. The following applies: for kinact/KI: a: single kobs determined; for Fold PAD3 Selectivity: kinact/KI relative to least inhibited isozyme (1.0). As to the method: as §1

A further assay has as its target T4, PAD4 (Homo sapiens, UniProt Q9UM07).
T4 construct: made in house
The assay is described as follows: Inactivation kinetics, PAD4. Conditions: for kinact/KI: a: single kobs determined, b: from a linear fit; for Fold PAD4 Selectivity: kinact/KI relative to least inhibited isozyme (1.0). As to the method:
as §1

T2 sequence (Q9Y2J8 whole entry): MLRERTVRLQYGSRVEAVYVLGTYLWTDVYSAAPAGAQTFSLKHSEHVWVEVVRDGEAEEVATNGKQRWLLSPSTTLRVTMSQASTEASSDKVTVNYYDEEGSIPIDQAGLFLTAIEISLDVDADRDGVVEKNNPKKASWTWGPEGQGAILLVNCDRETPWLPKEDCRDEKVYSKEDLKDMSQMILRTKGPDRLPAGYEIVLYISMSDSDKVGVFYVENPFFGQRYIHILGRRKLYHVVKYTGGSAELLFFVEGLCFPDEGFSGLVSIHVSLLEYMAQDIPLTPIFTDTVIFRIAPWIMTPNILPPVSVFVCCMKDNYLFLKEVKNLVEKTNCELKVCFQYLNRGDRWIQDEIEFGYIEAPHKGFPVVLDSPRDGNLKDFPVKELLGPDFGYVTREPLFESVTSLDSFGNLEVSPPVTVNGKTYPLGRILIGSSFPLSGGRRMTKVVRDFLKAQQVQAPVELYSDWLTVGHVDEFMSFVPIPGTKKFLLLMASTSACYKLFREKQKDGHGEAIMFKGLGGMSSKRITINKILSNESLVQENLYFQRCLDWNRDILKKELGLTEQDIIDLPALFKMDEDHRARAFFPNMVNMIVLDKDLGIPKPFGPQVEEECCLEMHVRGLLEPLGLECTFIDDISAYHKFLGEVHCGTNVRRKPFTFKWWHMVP
T4 sequence (Q9UM07 whole entry): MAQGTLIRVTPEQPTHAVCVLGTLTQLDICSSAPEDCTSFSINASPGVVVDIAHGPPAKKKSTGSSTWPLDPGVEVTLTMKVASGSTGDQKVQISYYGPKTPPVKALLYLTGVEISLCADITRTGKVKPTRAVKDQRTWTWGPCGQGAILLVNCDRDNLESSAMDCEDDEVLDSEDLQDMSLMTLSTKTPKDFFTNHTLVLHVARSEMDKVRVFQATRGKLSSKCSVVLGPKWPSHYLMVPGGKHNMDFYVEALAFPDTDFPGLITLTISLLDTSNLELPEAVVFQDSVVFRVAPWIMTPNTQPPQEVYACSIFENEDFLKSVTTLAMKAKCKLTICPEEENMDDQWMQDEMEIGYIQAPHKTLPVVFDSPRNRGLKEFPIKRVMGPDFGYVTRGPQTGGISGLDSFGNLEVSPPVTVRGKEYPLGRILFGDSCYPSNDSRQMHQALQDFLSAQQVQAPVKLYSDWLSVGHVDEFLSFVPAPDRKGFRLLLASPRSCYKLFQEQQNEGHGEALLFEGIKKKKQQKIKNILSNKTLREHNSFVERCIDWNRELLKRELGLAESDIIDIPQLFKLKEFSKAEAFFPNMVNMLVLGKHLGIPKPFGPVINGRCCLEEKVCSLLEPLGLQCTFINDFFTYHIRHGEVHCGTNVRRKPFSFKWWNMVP

For `N=C(CCl)NCCC[C@H](NC(=O)c1ccc(-c2ccccc2)cc1)c1nc2cc(F)c(F)cc2[nH]1` [Compound 5r, N1-[1,1′-Phenyl]benzoyl-N5-(2-chloro-1-iminoethyl)-1-(5,6-difluoro-1H-benzo[d]imidazol-2-yl)-L-ornithine], on PAD1, the kinact/KI is 457 M⁻¹ s⁻¹ and the “Fold PAD1 Selectivity” value came out at 4.9 fold. Further, at PAD2, the kinact/KI is 93.3 M⁻¹ s⁻¹ and the “Fold PAD2 Selectivity” value is listed as 1.0 fold. For the same molecule, at PAD3, the kinact/KI was 239 M⁻¹ s⁻¹ and the “Fold PAD3 Selectivity” value worked out at 2.6 fold. Moreover, at PAD4, the inactivation efficiency (kinact/KI) is 337 M⁻¹ s⁻¹ and the “Fold PAD4 Selectivity” value is reported as 3.6 fold.

As to `N=C(CF)NCCC[C@H](NC(=O)c1ccc(-c2ccc(F)cc2)cc1)c1nc2cc(F)c(F)cc2[nH]1` [Compound 5s, N1-4′-F-[1,1′-Phenyl]benzoyl-N5-(2-fluoro-1-iminoethyl)-1-(5,6-difluoro-1H-benzo[d]imidazol-2-yl)-L-omithine], at PAD1, the kinact/KI is 29.8 M⁻¹ s⁻¹ and the “Fold PAD1 Selectivity” value came to 1.6 fold. For the same molecule, on PAD2, the kinact/KI is 23.7 M⁻¹ s⁻¹ and the “Fold PAD2 Selectivity” value was 1.3 fold. Also, on PAD3, the kinact/KI was 18.3 M⁻¹ s⁻¹ and the “Fold PAD3 Selectivity” value is reported as 1.0 fold. Also, at PAD4, the kinact/KI is 67.3 M⁻¹ s⁻¹ and the “Fold PAD4 Selectivity” value is given as 3.7 fold.

Consider `N=C(CCl)NCCC[C@H](NC(=O)c1ccc(-c2ccc(F)cc2)cc1)c1nc2cc(F)c(F)cc2[nH]1` [Compound 5t, N1-4′-F-[1,1′-Phenyl]benzoyl-N5-(2-chloro-1-iminoethyl)-1-(5,6-difluoro-1H-benzo[d]imidazol-2-yl)-L-omithine], for which, at PAD1, the kinact/KI was 508 M⁻¹ s⁻¹ and the “Fold PAD1 Selectivity” value turned out to be 5.3 fold. Besides, at PAD2, the kinact/KI was 95.5 M⁻¹ s⁻¹ and the “Fold PAD2 Selectivity” value amounted to 1.0 fold. In addition, on PAD3, the kinact/KI was 120 M⁻¹ s⁻¹ and the “Fold PAD3 Selectivity” value was 1.3 fold. Further, on PAD4, the kinact/KI was 354 M⁻¹ s⁻¹ and the “Fold PAD4 Selectivity” value is on record as 3.7 fold.

For `C#Cc1ccc(-c2ccc(C(=O)N[C@@H](CCCNC(=N)CCl)c3nc4ccccc4[nH]3)cc2)cc1` [Compound 5v, N1-4′-ethynyl-[1,1′-Phenyl]benzol-N5-(2-chloro-1-iminoethyl)-1-(1H-benzo[d]imidazol-2-yl)-L-ornithine], at PAD1, the kinact/KI was 6.92 M⁻¹ s⁻¹ and the “Fold PAD1 Selectivity” value turned out to be 1.1 fold. In addition, on PAD2, the kinact/KI is 14.6 M⁻¹ s⁻¹ and the “Fold PAD2 Selectivity” value is 2.3 fold. At PAD3, the kinact/KI is 6.25 M⁻¹ s⁻¹ and the “Fold PAD3 Selectivity” value is reported as 1.0 fold. At PAD4, the kinact/KI was 21.7 M⁻¹ s⁻¹ and the “Fold PAD4 Selectivity” value amounted to 3.5 fold.

`N=C(CF)NCCC[C@H](NC(=O)c1ccccc1C(=O)O)c1nc2ccccc2[nH]1` [Compound 6a, N1-(2-Carboxyl)benzol-N5-(2-fluoro-1-iminoethyl)-1-(1H-benzo[d]imidazol-2-yl)-L-ornithine]: on PAD1, the kinact/KI is 275 M⁻¹ s⁻¹ and the “Fold PAD1 Selectivity” value is recorded as 11 fold. At PAD2, the kinact/KI is 25 M⁻¹ s⁻¹ and the “Fold PAD2 Selectivity” value is given as 1.0 fold. In addition, on PAD3, the kinact/KI was 108 M⁻¹ s⁻¹ and the “Fold PAD3 Selectivity” value is reported as 4.3 fold. For the same molecule, on PAD4, the inactivation efficiency (kinact/KI) is 405 M⁻¹ s⁻¹ and the “Fold PAD4 Selectivity” value worked out at 16 fold.

Consider `N=C(CCl)NCCC[C@H](NC(=O)c1ccccc1C(=O)O)c1nc2ccccc2[nH]1` [Compound 6b, N1-(2-Carboxyl)benzol-N5-(2-chloro-1-iminoethyl)-1-(1H-benzo[d]imidazol-2-yl)-L-omithine], for which, at PAD1, the kinact/KI was 475 M⁻¹ s⁻¹ and the “Fold PAD1 Selectivity” value is listed as 8.3 fold. In addition, on PAD2, the kinact/KI is 57.5 M⁻¹ s⁻¹ and the “Fold PAD2 Selectivity” value was 1.0 fold. On PAD3, the kinact/KI was 354 M⁻¹ s⁻¹ and the “Fold PAD3 Selectivity” value came to 6.2 fold. Further, on PAD4, the kinact/KI was 517 M⁻¹ s⁻¹ and the “Fold PAD4 Selectivity” value was determined as 9.0 fold.

`Cn1c([C@H](CCCNC(=N)CF)NC(=O)c2ccccc2C(=O)O)nc2ccccc21` [Compound 6c, N1-(2-Carboxyl)benzoyl-N5-(2-fluoro-1-iminoethyl)-1-(1-methyl-benzo[d]imidazol-2-yl)-L-ornithine]: on PAD1, the kinact/KI is 538 M⁻¹ s⁻¹ and the “Fold PAD1 Selectivity” value is on record as 40 fold. On PAD2, the kinact/KI is 197 M⁻¹ s⁻¹ and the “Fold PAD2 Selectivity” value is listed as 15 fold. Further, at PAD3, the kinact/KI is 17.2 M⁻¹ s⁻¹ and the “Fold PAD3 Selectivity” value was 1.3 fold. Moreover, on PAD4, the kinact/KI is 13.3 M⁻¹ s⁻¹ and the “Fold PAD4 Selectivity” value is 1.0 fold.

Turning to `Cn1c([C@H](CCCNC(=N)CCl)NC(=O)c2ccccc2C(=O)O)nc2ccccc21` [Compound 6d, N1-(2-Carboxyl)benzoyl-N5-(2-chloro-1-iminoethyl)-1-(1-methyl-benzo[d]imidazol-2-yl)-L-ornithine], at PAD1, the kinact/KI is 537 M⁻¹ s⁻¹ and the “Fold PAD1 Selectivity” value turned out to be 4.3 fold. Further, at PAD2, the kinact/KI is 240 M⁻¹ s⁻¹ and the “Fold PAD2 Selectivity” value turned out to be 1.9 fold. Also, at PAD3, the kinact/KI was 125 M⁻¹ s⁻¹ and the “Fold PAD3 Selectivity” value is listed as 1.0 fold. On PAD4, the kinact/KI is 130 M⁻¹ s⁻¹ and the “Fold PAD4 Selectivity” value is listed as 1.0 fold.

With `CCn1c([C@H](CCCNC(=N)CF)NC(=O)c2ccccc2C(=O)O)nc2ccccc21` [Compound 6e, N1-(2-Carboxyl)benzoyl-N5-(2-fluoro-1-iminoethyl)-1-(1-ethyl-benzo[d]imidazol-2-yl)-L-ornithine], at PAD1, the inactivation efficiency (kinact/KI) was 650 M⁻¹ s⁻¹ and the “Fold PAD1 Selectivity” value was 39 fold. Besides, on PAD2, the second-order inactivation constant (kinact/KI) is 527 M⁻¹ s⁻¹ and the “Fold PAD2 Selectivity” value is given as 31 fold. In addition, on PAD3, the kinact/KI was 29.2 M⁻¹ s⁻¹ and the “Fold PAD3 Selectivity” value is 1.7 fold. On PAD4, the inactivation efficiency (kinact/KI) is 16.8 M⁻¹ s⁻¹ and the “Fold PAD4 Selectivity” value was 1.0 fold.

On to `CCn1c([C@H](CCCNC(=N)CCl)NC(=O)c2ccccc2C(=O)O)nc2ccccc21` [Compound 6f, N1-(2-Carboxyl)benzoyl-N5-(2-chloro-1-iminoethyl)-1-(1-ethyl-benzo[d]imidazol-2-yl)-L-ornithine], for which, at PAD1, the kinact/KI was 785 M⁻¹ s⁻¹ and the “Fold PAD1 Selectivity” value was 4.3 fold. For the same molecule, at PAD2, the kinact/KI is 290 M⁻¹ s⁻¹ and the “Fold PAD2 Selectivity” value was determined as 1.6 fold. On PAD3, the inactivation efficiency (kinact/KI) was 183 M⁻¹ s⁻¹ and the “Fold PAD3 Selectivity” value amounted to 1.0 fold. Further, on PAD4, the kinact/KI was 228 M⁻¹ s⁻¹ and the “Fold PAD4 Selectivity” value is listed as 1.2 fold.

With `CC(C)n1c([C@H](CCCNC(=N)CF)NC(=O)c2ccccc2C(=O)O)nc2ccccc21` [Compound 6g, N1-(2-Carboxyl)benzoyl-N5-(2-fluoro-1-iminoethyl)-1-(1-isopropyl-benzo[d]imidazol-2-yl)-L-ornithine], on PAD1, the kinact/KI was 378 M⁻¹ s⁻¹ and the “Fold PAD1 Selectivity” value was 49 fold. At PAD2, the second-order inactivation constant (kinact/KI) is 412 M⁻¹ s⁻¹ and the “Fold PAD2 Selectivity” value was 54 fold. At PAD3, the kinact/KI is 33.5 M⁻¹ s⁻¹ and the “Fold PAD3 Selectivity” value came out at 4.4 fold. Moreover, on PAD4, the kinact/KI was 7.67 M⁻¹ s⁻¹ and the “Fold PAD4 Selectivity” value is on record as 1.0 fold.
